What was measured:
[1] = test system: B. subtilis 168; test: fitness (endpoint OD595 vs no drug) (fraction); higher = more growth
In short: (§1)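 Fitness compares growth at the stationary-phase transition with the robust mean of no-drug control wells, as a ratio of optical densities. The ratio is capped at 1. Wells of 384-well plates held 30 µl, or 55 µl for S. pneumoniae, inoculated at OD595 0.01. Readings at OD595 every 30 min for 14 h at 37 °C were corrected against the first reading.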

[2] = test system: S. pneumoniae D39V; test: as above
In short: as §1

[3] = test system: S. aureus Newman; test: Bliss interaction score (quartile over a dose matrix) (fitness difference); higher = more antagonism (negative = synergy)
In short: (§2)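 Fitness was derived from optical density at entry into stationary phase, divided by the robust mean of the no-drug wells on the same plate. That reading was taken as OD595, and the ratio was capped at 1. Single-drug fitness was inferred from the combination data. The Bliss score, observed fitness minus the expected product of single-drug fitness, was summarised as quartiles over technical, biological and donor/recipient replicates.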

[4] = test system: B. subtilis 168; test: as above
In short: as §2

[5] = test system: S. pneumoniae D39V; test: as above
In short: as §2

[6] = test system: S. aureus DSM 20231; test: as above
In short: as §2
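For Bliss interaction score (quartile over a dose matrix) in this document: first quartile when negative (synergy) and third quartile when positive (antagonism).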

C[C@H]1c2cccc(O)c2C(=O)C2=C(O)[C@]3(O)C(=O)C(C(N)=O)=C(O)[C@@H](N(C)C)[C@@H]3[C@@H](O)[C@@H]21 [Doxycycline] + C[C@@H]1O[C@@H]1P(=O)(O)O [Fosfomycin]
fitness
Conditions | partner 1.25 µg/mL | partner 1.562 µg/mL | partner 2.5 µg/mL | partner 3.124 µg/mL | partner 5 µg/mL | partner 6.248 µg/mL
[1], first compound 0.02 µg/mL | – | 0.752 | – | 0.645 | – | 0.556
[1], first compound 0.04 µg/mL | – | 0.699 | – | 0.56 | – | 0.419
[1], first compound 0.08 µg/mL | – | 0.5 | – | 0.364 | – | 0.253
[2], first compound 0.0155 µg/mL | 0.894 | – | 0.862 | – | 0.791 | –
[2], first compound 0.031 µg/mL | 0.799 | – | 0.804 | – | 0.742 | –

fitness, [2], one replicate
Conditions | partner 1.25 µg/mL | partner 2.5 µg/mL | partner 5 µg/mL
first compound 0.003875 µg/mL | 0.969 | 0.883 | 0.753
first compound 0.00775 µg/mL | 0.97 | 0.915 | 0.814

Conditions | Bliss interaction score
[3] | -0.113
[4] | 0.131
[5] | -0.096
[6] | -0.153

C[C@H]1c2cccc(O)c2C(=O)C2=C(O)[C@]3(O)C(=O)C(C(N)=O)=C(O)[C@@H](N(C)C)[C@@H]3[C@@H](O)[C@@H]21 [Doxycycline] + C[C@H]1COc2c(N3CCN(C)CC3)c(F)cc3c(=O)c(C(=O)O)cn1c23 [Levofloxacin]
fitness, one replicate
Conditions | first compound 0.003875 µg/mL | first compound 0.00775 µg/mL | first compound 0.02 µg/mL | first compound 0.031 µg/mL | first compound 0.04 µg/mL | first compound 0.062 µg/mL | first compound 0.08 µg/mL
[1], partner 0.001 µg/mL | – | – | 0.929 | – | 0.859 | – | 0.735
[1], partner 0.0078 µg/mL | – | – | 0.989 | – | 0.859 | – | 0.712
[2], partner 0.2 µg/mL | 0.984 | 0.927 | – | 0.822 | – | 0.712 | –
[2], partner 0.4 µg/mL | 0.858 | 0.838 | – | 0.816 | – | 0.687 | –
[2], partner 0.8 µg/mL | 0.581 | 0.62 | – | 0.697 | – | 0.595 | –

Conditions | fitness
[1], first compound 0.02 µg/mL, partner 0.002 µg/mL | 0.937
[1], first compound 0.02 µg/mL, partner 0.0039 µg/mL | 0.939
[1], first compound 0.02 µg/mL, partner 0.0312 µg/mL | 0.0328
[1], first compound 0.02 µg/mL, partner 0.0625 µg/mL | 0.0358
[1], first compound 0.02 µg/mL, partner 0.125 µg/mL | 0.0474
[1], first compound 0.04 µg/mL, partner 0.002 µg/mL | 0.784
[1], first compound 0.04 µg/mL, partner 0.0039 µg/mL | 0.817
[1], first compound 0.04 µg/mL, partner 0.0312 µg/mL | 0.0347
[1], first compound 0.04 µg/mL, partner 0.0625 µg/mL | 0.032
[1], first compound 0.04 µg/mL, partner 0.125 µg/mL | 0.0298
[1], first compound 0.08 µg/mL, partner 0.002 µg/mL | 0.656
[1], first compound 0.08 µg/mL, partner 0.0039 µg/mL | 0.681
[1], first compound 0.08 µg/mL, partner 0.0312 µg/mL | 0.0307
[1], first compound 0.08 µg/mL, partner 0.0625 µg/mL | 0.0405
[1], first compound 0.08 µg/mL, partner 0.125 µg/mL | 0.0329
[2], first compound 0.0155 µg/mL, partner 0.1725 µg/mL | 0.895
[2], first compound 0.0155 µg/mL, partner 0.2 µg/mL | 0.946
[2], first compound 0.0155 µg/mL, partner 0.345 µg/mL | 0.805
[2], first compound 0.0155 µg/mL, partner 0.4 µg/mL | 0.887
[2], first compound 0.0155 µg/mL, partner 0.69 µg/mL | 0.584
[2], first compound 0.0155 µg/mL, partner 0.8 µg/mL | 0.677
[2], first compound 0.031 µg/mL, partner 0.1725 µg/mL | 0.889
[2], first compound 0.031 µg/mL, partner 0.345 µg/mL | 0.795
[2], first compound 0.031 µg/mL, partner 0.69 µg/mL | 0.485
[2], first compound 0.062 µg/mL, partner 0.1725 µg/mL | 0.873
[2], first compound 0.062 µg/mL, partner 0.345 µg/mL | 0.775
[2], first compound 0.062 µg/mL, partner 0.69 µg/mL | 0.652

Conditions | Bliss interaction score
[3] | 0.0574
[4] | 0.043
[5] | 0.0649
[6] | 0.075

COc1cccc2c1C(=O)c1c(O)c3c(c(O)c1C2=O)C[C@@](O)(C(=O)CO)C[C@@H]3O[C@H]1C[C@H](N)[C@H](O)[C@H](C)O1 [Doxorubicin] + CCC(C)C1C(=O)NC(=C)C(=O)NC(C(=O)NC(CSCC(C(=O)N1)NC(=O)/C(=C/C)/NC(=O)C(C(C)CC)N)C(=O)NC2C(SCC(NC(=O)CNC(=O)C3CCCN3C2=O)C(=O)NC(CCCCN)C(=O)NC4C(SCC(NC(=O)CNC(=O)C(NC(=O)C(NC(=O)C(NC(=O)CNC4=O)C)CC(C)C)CCSC)C(=O)NC(CC(=O)N)C(=O)NC(CCSC)C(=O)NC(CCCCN)C(=O)NC5C(SCC6C(=O)NC(C(=O)NC(CSC(C(C(=O)N6)NC(=O)C(NC5=O)C)C)C(=O)NC(CO)C(=O)NC(C(C)CC)C(=O)NC(CC7=CN=CN7)C(=O)NC(C(C)C)C(=O)NC(=C)C(=O)NC(CCCCN)C(=O)O)CC8=CN=CN8)C)C)C)CC(C)C [Nisin]
main component drawn
Conditions | fitness
[1], first compound 0.625 µg/mL, partner 0.5 µg/mL | 0.882
[1], first compound 0.625 µg/mL, partner 1 µg/mL | 0.852
[1], first compound 0.625 µg/mL, partner 2 µg/mL | 0.459
[1], first compound 1.25 µg/mL, partner 0.5 µg/mL | 0.821
[1], first compound 1.25 µg/mL, partner 1 µg/mL | 0.83
[1], first compound 1.25 µg/mL, partner 2 µg/mL | 0.567
[1], first compound 2.5 µg/mL, partner 0.5 µg/mL | 0.688
[1], first compound 2.5 µg/mL, partner 1 µg/mL | 0.603
[1], first compound 2.5 µg/mL, partner 2 µg/mL | 0.19
[2], first compound 0.25 µg/mL, partner 0.4275 µg/mL | 0.998
[2], first compound 0.25 µg/mL, partner 0.855 µg/mL | 0.991
[2], first compound 0.25 µg/mL, partner 1.6 µg/mL | 0.0164
[2], first compound 0.25 µg/mL, partner 1.71 µg/mL | 0.0746
[2], first compound 0.25 µg/mL, partner 3.2 µg/mL | 0.0268
[2], first compound 0.25 µg/mL, partner 6.4 µg/mL | 0.0249
[2], first compound 0.5 µg/mL, partner 0.4275 µg/mL | 0.977
[2], first compound 0.5 µg/mL, partner 0.855 µg/mL | 0.91
[2], first compound 0.5 µg/mL, partner 1.6 µg/mL | 0.0215
[2], first compound 0.5 µg/mL, partner 1.71 µg/mL | 0.0797
[2], first compound 0.5 µg/mL, partner 3.2 µg/mL | 0.0424
[2], first compound 0.5 µg/mL, partner 6.4 µg/mL | 0.039
[2], first compound 1 µg/mL, partner 0.4275 µg/mL | 0.844
[2], first compound 1 µg/mL, partner 1.6 µg/mL | 0.0081
[2], first compound 1 µg/mL, partner 1.71 µg/mL | 0.065
[2], first compound 1 µg/mL, partner 3.2 µg/mL | 0.0126
[2], first compound 1 µg/mL, partner 6.4 µg/mL | 0.0281

fitness, [1], one replicate, main component drawn
Conditions | partner 1.25 µg/mL | partner 1.6 µg/mL | partner 2.5 µg/mL | partner 3.2 µg/mL | partner 4 µg/mL | partner 5 µg/mL | partner 6.4 µg/mL | partner 8 µg/mL | partner 16 µg/mL
first compound 0.625 µg/mL | ≥ 1 | 0.646 | 0.612 | 0.0265 | 0.0271 | 0.0205 | 0.0251 | 0.0074 | 0.0185
first compound 1.25 µg/mL | 0.996 | 0.742 | 0.659 | 0.0085 | 0.0489 | 0.0315 | 0.0249 | 0.0463 | 0.0265
first compound 2.5 µg/mL | 0.888 | 0.178 | 0.451 | 0.0274 | 0.0327 | 0.0219 | 0.0137 | 0.0311 | 0.0578

main component drawn
Conditions | Bliss interaction score
[3] | -0.0646
[4] | 0.0614
[5] | -0.0536
[6] | 0.0625
